Assay results from patent US11219214B2, “Benzosultams and analogues and their use as fungicides” (Bayer CropScience Aktiengesellschaft, priority 2016, dated 2022).
Like-named read-outs stand apart in the source and are kept apart here.

Columns and labels:
[1] = 0.1% aqueous formic acid and acetonitrile, gradient 10% to 95% acetonitrile
Description: In table 1a, the log P values were determined in accordance with EEC Directive 79/831 Annex V.A8 by HPLC (High Performance Liquid Chromatography) on a reversed-phase column (C 18), using the method described below:
Method C: temperature: 55° C.; mobile phases: 0.1% aqueous formic acid and acetonitrile; linear gradient from 10% acetonitrile to 95% acetonitrile.
If more than one Log P value is available within the same method, all the values are given and separated by “;”.

Leptnosphaeria nodorum = experiment: Example C: Leptnosphaeria nodorum in vitro cell test; assay type: cell-based; details: 144 h, liquid culture, 6 days incubation, inhibition of fungal growth, read-out: Efficacy; for inhibition of growth at 20 ppm: 20 ppm of active ingredient
Description: Example C: Leptnosphaeria nodorum In Vitro Cell Test • Solvent: dimethyl sulfoxide (DMSO) • Culture medium: 14.6 g anhydrous D-glucose (VWR), 7.1 g Mycological Peptone (Oxoid), 1.4 g granulated Yeast Extract (Merck), QSP 1 liter • Inoculum: spore suspension Active ingredients were solubilized in DMSO and the solution used to prepare the required range of concentrations. […] A spore suspension of L. nodorum was prepared and diluted to the desired spore density. Active ingredients were evaluated for their ability to inhibit spore germination and mycelium growth in liquid culture assay. The compounds were added in the desired concentration to the culture medium with spores. After 6 days incubation, fungi-toxicity of compounds was determined by spectrometric measurement of mycelium growth. Inhibition of fungal growth was determined by comparing the absorbance values in wells containing the active ingredients with the absorbance in control wells without fungicides.

Pyricularia oryzae = experiment: microbe, parasite or virus in culture; assay type: cell-based; details: 120 h, read-out: Efficacy, 20 ppm of active ingredient, liquid culture, 5 days incubation, inhibition of fungal growth
[2] = Method C: HPLC reversed-phase C 18, 55° C.

SMILES	chromatographic logP ([1]; Method C: 55° C.)	inhibition of growth at 20 ppm (Pyricularia oryzae) [%]	chromatographic logP ([1]; Method A: 40° C.)	other results
CC1(F)c2ccccc2N(c2cnc3c(F)c(F)ccc3c2)S(=O)(=O)C1(C)C (centres unmarked) [I.225, 1-(7,8-difluoroquinolin-3-yl)-4-fluoro-3,3,4-trimethyl-3,4-dihydro-1H-2,1-benzothiazine 2,2-dioxide]	3.6	90 to 100	–	chromatographic logP [1, 2]: 3.6; inhibition of growth at 20 ppm (Leptnosphaeria nodorum): 90 to 100%
CC1(C)Cc2ccccc2NS1(=O)=O [III.06A]	1.6	–	–	–
FC(F)(F)c1cccc2cc(I)cnc12 [II.01A]	–	–	3.11	–
N#Cc1cccc2cc(I)cnc12 [II.11A]	–	–	2.54	–
O=C1CS(=O)(=O)N(c2cnc3ccccc3c2)c2ccccc21 [I.159, 1-(quinolin-3-yl)-1H-2,1-benzothiazin-4(3H)-one 2,2-dioxide]	2.28	–	–	–
CC(C)(CS(=O)(=O)Nc1cnc2ccccc2c1)c1ccccc1Br [VIIIa.18, 2-(2-bromophenyl)-2-methyl-N-(quinolin-3-yl)propane-1-sulfonamide]	2.98	–	–	–
N#Cc1cccc2c1CS(=O)(=O)N2 [III.05A]	–	–	1.08	–
O=S1(=O)C=CCc2ccccc2N1Cc1ccccc1 [V.01, 1-benzyl-1,5-dihydro-2,1-benzothiazepine 2,2-dioxide]	6.01	–	–	–
COC(=O)c1ccccc1Nc1cnc2ccccc2c1 [methyl 2-(quinolin-3-ylamino)benzoate]	2.96	–	–	–
CC1Cc2ccccc2N(c2cnc3ccccc3c2)S1(=O)=O (centres unmarked) [I.158, 3-methyl-1-(quinolin-3-yl)-3,4-dihydro-1H-2,1-benzothiazine 2,2-dioxide]	2.58	–	–	–
O=S1(=O)N(Cc2ccccc2)c2ccccc2CC12CC2 [IV.01A]	3.19	–	–	–
Fc1cc2cc(I)cnc2cc1F [II.08A]	–	–	3.15	–
N#Cc1ccc2ncc(I)cc2c1 [II.04A]	–	–	2.5	–
C=C1c2ccccc2N(c2cnc3c(F)c(F)ccc3c2)S(=O)(=O)C1(C)C [I.219, 1-(7,8-difluoroquinolin-3-yl)-3,3-dimethyl-4-methylene-3,4-dihydro-1H-2,1-benzothiazine 2,2-dioxide]	3.34	90 to 100	–	chromatographic logP [1, 2]: 3.34; inhibition of growth at 20 ppm (Leptnosphaeria nodorum): 90 to 100%
O=S1(=O)Nc2ccccc2CC12CC2 [III.07A]	1.49	–	–	–
CC1Cc2ccccc2N(c2cc3ccccc3[n+]([O-])c2)S1(=O)=O (centres unmarked) [I.162, 3-methyl-1-(1-oxidoquinolin-3-yl)-3,4-dihydro-1H-2,1-benzothiazine 2,2-dioxide]	1.81	90 to 100	–	inhibition of growth at 20 ppm (Leptnosphaeria nodorum): 90 to 100%
COC(=O)c1ccccc1N(c1cnc2ccccc2c1)S(C)(=O)=O [Xa.02, methyl 2-[(methylsulfonyl)(quinolin-3-yl)amino]benzoate]	2.17	–	–	–
Cc1ccc2cc(I)cnc2c1F [II.03A]	–	–	3.11	–
Cc1ccc(F)c2ncc(I)cc12 [II.10A]	–	–	3.06	–
CC1(C)CS(=O)(=O)N(c2cnc3ccccc3c2)c2ccccc21 [I.166, 4,4-dimethyl-1-(quinolin-3-yl)-3,4-dihydro-1H-2,1-benzothiazine 2,2-dioxide]	2.88	90 to 100	–	–
Fc1cc(F)c2ncc(I)cc2c1 [II.05A]	–	–	2.88	–
Fc1cc(Cl)cc2cc(I)cnc12 [II.09A]	–	–	3.15	–

SMILES	chromatographic logP ([1]; Method C: 55° C.)	inhibition of growth at 20 ppm (Pyricularia oryzae) [%]	chromatographic logP ([1]; Method A: 40° C.)	other results
O=S1(=O)Cc2c(cccc2C(F)(F)F)N1 [III.02A]	–	–	1.99	–
CC1(O)c2ccccc2N(c2cnc3ccccc3c2)S(=O)(=O)C1(C)C (centres unmarked) [I.213, 3,3,4-trimethyl-1-(quinolin-3-yl)-3,4-dihydro-1H-2,1-benzothiazin-4-ol 2,2-dioxide]	2.46	80 to 89	–	chromatographic logP [1, 2]: 2.46; inhibition of growth at 20 ppm (Leptnosphaeria nodorum): 80 to 89%
Fc1ccc(F)c2ncc(I)cc12 [II.06A]	–	–	2.94	–
CC1C(C)(C)c2ccccc2N(c2cnc3ccccc3c2)S1(=O)=O (centres unmarked) [I.173, 3,4,4-trimethyl-1-(quinolin-3-yl)-3,4-dihydro-1H-2,1-benzothiazine 2,2-dioxide]	3.53	90 to 100	–	inhibition of growth at 20 ppm (Leptnosphaeria nodorum): 90 to 100%
Fc1cc(F)c2cc(I)cnc2c1 [II.12A]	–	–	3.31	–
CC1(C)c2ccccc2N(c2cnc3ccccc3c2)S(=O)(=O)C1(C)C [I.172, 3,3,4,4-tetramethyl-1-(quinolin-3-yl)-3,4-dihydro-1H-2,1-benzothiazine 2,2-dioxide]	3.85	90 to 100	–	inhibition of growth at 20 ppm (Leptnosphaeria nodorum): 90 to 100%
CC1Cc2ccccc2NS1(=O)=O (centres unmarked) [3-methyl-3,4-dihydro-1H-2,1-benzothiazine 2,2-dioxide]	1.33	–	–	–
O=S1(=O)Cc2ccccc2N1c1cnc2c(F)cccc2c1 [I.018, 3-(2,2-dioxido-2,1-benzothiazol-1(3H)-yl)-8-fluoroquinoline]	–	–	2.52	inhibition of growth at 20 ppm (Leptnosphaeria nodorum): 90 to 100%
CC1(C)c2ccccc2N(c2cnc3c(F)cccc3c2)S1(=O)=O [I.015, 3-(3,3-dimethyl-2,2-dioxido-2,1-benzothiazol-1(3H)-yl)-8-fluoroquinoline]	–	90 to 100	3.12	inhibition of growth at 4 ppm (Leptnosphaeria nodorum): ≥ 80%; inhibition of growth at 20 ppm (Leptnosphaeria nodorum): 90 to 100%
CC1(C)C(=O)c2ccccc2N(c2cnc3ccccc3c2)S1(=O)=O [I.156, 3,3-dimethyl-1-(quinolin-3-yl)-1H-2,1-benzothiazin-4(3H)-one 2,2-dioxide]	2.93	90 to 100	–	inhibition of growth at 20 ppm (Leptnosphaeria nodorum): 70 to 79%
Clc1ccc2cc(I)cnc2c1Cl [II.07A]	–	–	3.83	–
COC1N(c2cnc3c(F)cccc3c2)c2ccccc2C1(C)C (centres unmarked) [CMP1, 8-fluoro-3-(2-methoxy-3,3-dimethyl-2,3-dihydro-1H-indol-1-yl)quinoline, reference compound]	–	7	–	inhibition of growth at 4 ppm (Leptnosphaeria nodorum): 0%; inhibition of growth at 20 ppm (Leptnosphaeria nodorum): 5%
Fc1c(Cl)ccc2cc(I)cnc12 [II.02A]	–	–	3.37	–
O=S1(=O)Cc2cc(C(F)(F)F)ccc2N1 [III.03A]	–	–	1.95	–
O=S1(=O)Cc2c(F)cccc2N1 [III.01A]	–	–	1.34	–
O=S1(=O)Cc2c(cccc2OC(F)(F)F)N1 [III.04A]	–	–	2.11	–
O=S1(=O)CC(=NOCc2ccccc2)c2ccccc2N1c1cnc2ccccc2c1 [I.241, N-(benzyloxy)-1-(quinolin-3-yl)-1H-2,1-benzothiazin-4(3H)-imine 2,2-dioxide]	3.94	70 to 79	–	chromatographic logP [1, 2]: 3.94
O=S1(=O)CCCc2ccccc2N1 [IIIc.02, 1,3,4,5-tetrahydro-2,1-benzothiazepine 2,2-dioxide]	1.2	–	–	–
O=C1c2ccccc2N(c2cnc3ccccc3c2)S(=O)(=O)C1(Cl)Cl [I.239, 3,3-dichloro-1-(quinolin-3-yl)-1H-2,1-benzothiazin-4(3H)-one 2,2-dioxide]	3.49	–	–	chromatographic logP [1, 2]: 3.49
CC1(OCc2ccccc2)c2ccccc2N(c2cnc3ccccc3c2)S(=O)(=O)C1(C)C (centres unmarked) [I.250, 4-(benzyloxy)-3,3,4-trimethyl-1-(quinolin-3-yl)-3,4-dihydro-1H-2,1-benzothiazine 2,2-dioxide]	4.04	80 to 89	–	inhibition of growth at 20 ppm (Leptnosphaeria nodorum): 90 to 100%
CC1(C)C(F)(F)c2ccccc2N(c2cnc3ccccc3c2)S1(=O)=O [I.163, 4,4-difluoro-3,3-dimethyl-1-(quinolin-3-yl)-3,4-dihydro-1H-2,1-benzothiazine 2,2-dioxide]	3.25	80 to 89	–	inhibition of growth at 20 ppm (Leptnosphaeria nodorum): 90 to 100%
